Laboratory results taken from BigSolDB 2.1.

O=C(Nc1ccc(F)cc1F)c1cccnc1Oc1cccc(C(F)(F)F)c1
solubility (mole fraction)
Settings	278.15 K	283.15 K	288.15 K	293.15 K	298.15 K	303.15 K	308.15 K	313.15 K	318.15 K	323.15 K
in ethanol	0.000246	0.000325	0.000425	0.00055	0.000703	0.000894	0.00113	0.00142	0.00177	0.0022
in ethyl acetate	0.0105	0.0125	0.015	0.0176	0.0206	0.024	0.0281	0.0322	0.0371	0.0429
in isopropanol	4.4e-05	7.09e-05	0.000114	0.000186	0.000292	0.000456	0.00069	0.00104	0.00158	0.00232
in methanol	0.000223	0.0003	0.000385	0.000489	0.000633	0.000799	0.000999	0.00125	0.00155	0.00193
in water	1.52e-07	2e-07	2.53e-07	3.15e-07	3.93e-07	4.84e-07	5.94e-07	7.19e-07	8.81e-07	1.07e-06
